Drawing on patent US20230295200A1 (REGENTS OF THE UNIVERSITY OF MICHIGAN, priority 2022, published 2023), this text covers Ki for 14 compounds.

Some results are limits rather than exact numbers.

One assay concerns the target T1, STAT6 protein (Homo sapiens, UniProt P42226).
T1 sequence (P42226 1-847): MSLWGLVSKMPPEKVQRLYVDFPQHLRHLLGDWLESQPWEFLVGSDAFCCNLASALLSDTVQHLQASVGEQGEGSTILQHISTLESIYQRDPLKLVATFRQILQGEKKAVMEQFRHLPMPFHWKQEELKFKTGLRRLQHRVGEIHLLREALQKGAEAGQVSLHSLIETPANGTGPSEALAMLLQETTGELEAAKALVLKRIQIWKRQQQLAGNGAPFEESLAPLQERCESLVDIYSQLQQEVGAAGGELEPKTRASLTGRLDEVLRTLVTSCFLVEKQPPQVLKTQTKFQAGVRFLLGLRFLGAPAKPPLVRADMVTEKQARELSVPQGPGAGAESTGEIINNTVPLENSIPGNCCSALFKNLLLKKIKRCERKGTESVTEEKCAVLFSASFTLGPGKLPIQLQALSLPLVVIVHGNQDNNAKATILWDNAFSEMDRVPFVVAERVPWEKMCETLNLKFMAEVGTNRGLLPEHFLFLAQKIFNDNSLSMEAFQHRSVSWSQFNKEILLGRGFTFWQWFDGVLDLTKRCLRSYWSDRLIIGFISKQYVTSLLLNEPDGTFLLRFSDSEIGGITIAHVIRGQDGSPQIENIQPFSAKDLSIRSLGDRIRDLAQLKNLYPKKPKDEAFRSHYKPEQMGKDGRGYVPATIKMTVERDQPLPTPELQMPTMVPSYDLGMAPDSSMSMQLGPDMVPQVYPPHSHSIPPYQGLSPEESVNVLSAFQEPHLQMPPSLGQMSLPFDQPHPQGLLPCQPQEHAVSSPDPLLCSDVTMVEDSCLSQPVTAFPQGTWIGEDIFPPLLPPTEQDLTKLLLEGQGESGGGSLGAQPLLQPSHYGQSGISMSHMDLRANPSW
Briefly: Fluorescence polarization (FP) binding assay, STAT6. The conditions noted are these: FP competition, 5 nM fluorescein-labeled tracer, 200 nM protein, PBS pH7.4; read-out: Binding STAT6. In a few lines:
(§1)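 Polarization of a 5 nM fluorescein tracer bound by 200 nM STAT protein, measured after 1 h room-temperature equilibration in buffered PBS pH 7.4 with DTT, gave inhibition constants via nonlinear curve fitting.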
On the technique in general: Fluorescence polarisation rises when a labelled molecule tumbles more slowly, as on binding a larger partner.

The target of the next assay is T2, STAT5A (Homo sapiens, UniProt P42229).
T2 sequence (P42229 1-794): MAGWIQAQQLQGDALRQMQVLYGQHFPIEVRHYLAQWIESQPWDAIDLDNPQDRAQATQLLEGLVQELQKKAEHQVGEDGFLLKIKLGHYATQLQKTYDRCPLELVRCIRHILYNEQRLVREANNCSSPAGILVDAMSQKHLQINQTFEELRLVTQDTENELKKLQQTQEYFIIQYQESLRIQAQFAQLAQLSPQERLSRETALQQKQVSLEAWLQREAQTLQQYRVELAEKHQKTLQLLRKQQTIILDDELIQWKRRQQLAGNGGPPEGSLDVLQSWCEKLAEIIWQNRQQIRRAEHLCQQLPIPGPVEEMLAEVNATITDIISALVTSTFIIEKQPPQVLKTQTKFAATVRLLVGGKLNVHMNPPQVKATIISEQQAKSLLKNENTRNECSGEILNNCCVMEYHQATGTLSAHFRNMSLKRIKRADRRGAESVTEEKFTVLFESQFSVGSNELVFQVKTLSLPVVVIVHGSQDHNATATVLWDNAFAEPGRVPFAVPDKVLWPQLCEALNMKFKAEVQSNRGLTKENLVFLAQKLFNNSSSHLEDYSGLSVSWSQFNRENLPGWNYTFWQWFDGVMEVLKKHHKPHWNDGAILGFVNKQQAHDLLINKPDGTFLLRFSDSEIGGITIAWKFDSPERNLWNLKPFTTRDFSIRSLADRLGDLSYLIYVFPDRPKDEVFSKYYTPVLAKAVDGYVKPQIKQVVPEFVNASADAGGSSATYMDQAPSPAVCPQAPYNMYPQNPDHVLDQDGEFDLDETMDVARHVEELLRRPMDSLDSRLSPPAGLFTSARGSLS
Briefly: Fluorescence polarization (FP) binding assay, STAT5A. The conditions noted are these: FP competition, 5 nM fluorescein-labeled tracer, 200 nM protein, PBS pH7.4. In a few lines: as §1

Turning to `CCOC(=O)CO[C@@H]1C[C@@H](C(=O)Nc2ncc(-c3ccccc3)s2)N(C(=O)[C@@H](NC(=O)c2cc3cc(C(F)(F)P(=O)(O)O)ccc3s2)C(C)(C)C)C1` [Compound 206, ((2-(((S)-1-((2S,4R)-4-(2-ethoxy-2-oxoethoxy)-2-((5-phenylthiazol-2-yl)carbamoyl)pyrrolidin-1-yl)-3,3-dimethyl-1-oxobutan-2-yl)carbamoyl)benzo[b]thiophen-5-yl)difluoromethyl)phosphonic acid], the Ki at STAT6 protein is 1 to 10 µM; at STAT5A, 0.1 to 1 µM.
The corresponding values for `CC(C)(C)[C@H](NC(=O)c1cc2cc(C(F)(F)P(=O)(O)O)ccc2s1)C(=O)N1C[C@@H](Oc2ccccc2)C[C@H]1C(=O)Nc1ncc(-c2ccccc2)s1` [Compound 207, ((2-(((S)-3,3-dimethyl-1-oxo-1-((2S,4S)-4-phenoxy-2-((5-phenylthiazol-2-yl)carbamoyl)pyrrolidin-1-yl)butan-2-yl)carbamoyl)benzo[b]thiophen-5-yl)difluoromethyl)phosphonic acid] are 1 to 10 µM and 1 to 10 µM.
Consider `CC(C)(C)[C@H](NC(=O)c1cc2cc(C(F)(F)P(=O)(O)O)ccc2s1)C(=O)N1C[C@H](Oc2ccccc2)C[C@H]1C(=O)Nc1ncc(-c2ccccc2)s1` [Compound 208, ((2-(((S)-3,3-dimethyl-1-oxo-1-((2S,4R)-4-phenoxy-2-((5-phenylthiazol-2-yl)carbamoyl)pyrrolidin-1-yl)butan-2-yl)carbamoyl)benzo[b]thiophen-5-yl)difluoromethyl)phosphonic acid], for which the Ki is 1 to 10 µM on STAT6 protein and 0.1 to 1 µM at STAT5A.
In the same order, the values of `CC(C)(C)[C@H](NC(=O)c1cc2cc(C(F)(F)P(=O)(O)O)ccc2s1)C(=O)N1C[C@@H](Oc2ccc3ccccc3c2)C[C@H]1C(=O)Nc1ncc(-c2ccccc2)s1` [Compound 209, ((2-(((S)-3,3-dimethyl-1-((2S,4S)-4-(naphthalen-2-yloxy)-2-((5-phenylthiazol-2-yl)carbamoyl)pyrrolidin-1-yl)-1-oxobutan-2-yl)carbamoyl)benzo[b]thiophen-5-yl)difluoromethyl)phosphonic acid] are 1 to 10 µM and over 10 µM.
In the same order, the values of `CC(C)(C)[C@H](NC(=O)c1cc2cc(C(F)(F)P(=O)(O)O)ccc2s1)C(=O)N1C[C@H](Oc2ccc3ccccc3c2)C[C@H]1C(=O)Nc1ncc(-c2ccccc2)s1` [Compound 210, ((2-(((S)-3,3-dimethyl-1-((2S,4R)-4-(naphthalen-2-yloxy)-2-((5-phenylthiazol-2-yl)carbamoyl)pyrrolidin-1-yl)-1-oxobutan-2-yl)carbamoyl)benzo[b]thiophen-5-yl)difluoromethyl)phosphonic acid] are 1 to 10 µM and 1 to 10 µM.
In the same order, the values of `CC(C)(C)[C@H](NC(=O)c1cc2cc(C(F)(F)P(=O)(O)O)ccc2s1)C(=O)N1CCC[C@H]1C(=O)Nc1ncc(Cc2ccccc2)s1` [Compound 211, ((2-(((S)-1-((S)-2-((5-benzylthiazol-2-yl)carbamoyl)pyrrolidin-1-yl)-3,3-dimethyl-1-oxobutan-2-yl)carbamoyl)benzo[b]thiophen-5-yl)difluoromethyl)phosphonic acid] are 0.1 to 1 µM and 1 to 10 µM.
For `CC(C)(C)[C@H](NC(=O)c1cc2cc(C(F)(F)P(=O)(O)O)ccc2s1)C(=O)N1CCC[C@H]1C(=O)Nc1nc(Cc2ccccc2)cs1` [Compound 212, ((2-(((S)-1-((S)-2-((4-benzylthiazol-2-yl)carbamoyl)pyrrolidin-1-yl)-3,3-dimethyl-1-oxobutan-2-yl)carbamoyl)benzo[b]thiophen-5-yl)difluoromethyl)phosphonic acid], the Ki at STAT6 protein and at STAT5A was 1 to 10 µM each time.
As to `CC(C)(C)[C@H](NC(=O)c1cc2cc(C(F)(F)P(=O)(O)O)ccc2s1)C(=O)N1CCC[C@H]1C(=O)Nc1nc2ccccc2s1` [Compound 213, ((2-(((S)-1-((S)-2-(benzo[d]thiazol-2-ylcarbamoyl)pyrrolidin-1-yl)-3,3-dimethyl-1-oxobutan-2-yl)carbamoyl)benzo[b]thiophen-5-yl)difluoromethyl)phosphonic acid], the Ki is 1 to 10 µM at STAT6 protein and over 10 µM on STAT5A.
The corresponding values for `CC(C)(C)[C@H](NC(=O)c1cc2cc(C(F)(F)P(=O)(O)O)ccc2s1)C(=O)N1CCC[C@H]1C(=O)N[C@H]1CCc2ccccc2C1` [Compound 214, ((2-(((S)-3,3-dimethyl-1-oxo-1-((S)-2-(((S)-1,2,3,4-tetrahydronaphthalen-2-yl)carbamoyl)pyrrolidin-1-yl)butan-2-yl)carbamoyl)benzo[b]thiophen-5-yl)difluoromethyl)phosphonic acid] are 1 to 10 µM and over 10 µM.
In the same order, the values of `CC(C)(C)[C@H](NC(=O)c1cc2cc(C(F)(F)P(=O)(O)O)ccc2s1)C(=O)N1CCC[C@H]1C(=O)N[C@@H]1CCc2ccccc2C1` [Compound 215, ((2-(((S)-3,3-dimethyl-1-oxo-1-((S)-2-(((R)-1,2,3,4-tetrahydronaphthalen-2-yl)carbamoyl)pyrrolidin-1-yl)butan-2-yl)carbamoyl)benzo[b]thiophen-5-yl)difluoromethyl)phosphonic acid] are 1 to 10 µM and over 10 µM.
The corresponding values for `CC(C)(C)[C@H](NC(=O)c1cc2cc(C(F)(F)P(=O)(O)O)ccc2s1)C(=O)N1Cc2ccccc2C[C@H]1C(=O)N1CCOC(c2ccccn2)C1` (stereo partly drawn) [Compound 216, ((2-(((2S)-3,3-dimethyl-1-oxo-1-((3S)-3-(2-(pyridin-2-yl)morpholine-4-carbonyl)-3,4-dihydroisoquinolin-2(1H)-yl)butan-2-yl)carbamoyl)benzo[b]thiophen-5-yl)difluoromethyl)phosphonic acid] are over 10 µM and over 10 µM.
As to `CC(C)(C)[C@H](NC(=O)c1cc2cc(C(F)(F)P(=O)(O)O)ccc2s1)C(=O)N1CCC[C@H]1C(=O)Nc1ccc(-c2ccccc2)s1` [Compound 305, ((2-(((S)-3,3-dimethyl-1-oxo-1-((S)-2-((5-phenylthiophen-2-yl)carbamoyl)pyrrolidin-1-yl)butan-2-yl)carbamoyl)benzo[b]thiophen-5-yl)difluoromethyl)phosphonic acid], the Ki is 1 to 10 µM on STAT6 protein and 0.1 to 1 µM on STAT5A.
With `CC(C)(C)[C@H](NC(=O)c1cc2cc(C(F)(F)P(=O)(O)O)ccc2s1)C(=O)N1CCCCC[C@H]1C(=O)Nc1ccc(-c2ccccc2)s1` [Compound 306, ((2-(((S)-3,3-dimethyl-1-oxo-1-((S)-2-((5-phenylthiophen-2-yl)carbamoyl)azepan-1-yl)butan-2-yl)carbamoyl)benzo[b]thiophen-5-yl)difluoromethyl)phosphonic acid], the Ki on STAT6 protein is over 10 µM; at STAT5A, 1 to 10 µM.
In the same order, the values of `CCO[C@@H]1CCN(C(=O)[C@@H](NC(=O)c2cc3cc(C(F)(F)P(=O)(O)O)ccc3s2)C(C)(C)C)[C@@H]1C(=O)N1CCO[C@H](c2ccccc2)C1` [Compound 307, ((2-(((S)-1-((2S,3R)-3-ethoxy-2-((R)-2-phenylmorpholine-4-carbonyl)pyrrolidin-1-yl)-3,3-dimethyl-1-oxobutan-2-yl)carbamoyl)benzo[b]thiophen-5-yl)difluoromethyl)phosphonic acid] are 0.1 to 1 µM and 1 to 10 µM.
